Experimental data from ChEMBL document CHEMBL3046389, “Synthesis and biological evaluation of novel hydroquinone dimethyl ethers as potential anticancer and antimicrobial agents” (2013).
In brackets after ≈: the same amount, converted by molar mass.

Legend:
Format in all cases: functional
Pseudomonas aeruginosa = assay: Antimicrobial activity against Pseudomonas aeruginosa ATCC 10145 after 48 hr by two-fold serial broth dilution method; details: ATCC 10145, 48 h
MDA-MB-231 = assay: Anticancer activity against Homo sapiens (human) MDA-MB-231/ATCC cells after 48 hr by SRB assay; details: MDA-MB-231, 48 h
MDA-MB-468 [1] = assay: Anticancer activity against Homo sapiens (human) MDA-MB-468 cells after 48 hr by SRB assay; details: MDA-MB-468, 48 h
Hs-578T = assay: Anticancer activity against Homo sapiens (human) Hs 578T cells after 48 hr by SRB assay
UO-31 = assay: Anticancer activity against Homo sapiens (human) UO31 cells after 48 hr by SRB assay; details: UO-31, 48 h
HOP-62 = assay: Anticancer activity against Homo sapiens (human) HOP62 cells after 48 hr by SRB assay; details: HOP-62, 48 h
OVCAR-3 = assay: Growth inhibition of Homo sapiens (human) OVCAR3 cells at 10 uM after 48 hr by SRB assay; details: OVCAR-3, 48 h, read-out: GI
HCT-116 [2] = assay: Growth inhibition of Homo sapiens (human) HCT116 cells at 10 uM after 48 hr by SRB assay; details: HCT-116, 48 h, read-out: GI
UACC-62 = assay: Anticancer activity against Homo sapiens (human) UACC62 cells after 48 hr by SRB assay; details: UACC-62, 48 h
MDA-MB-435 = assay: Anticancer activity against Homo sapiens (human) MDA-MB-435 cells after 48 hr by SRB assay; details: MDA-MB-435, 48 h
A549 = assay: Anticancer activity against Homo sapiens (human) A549/ATCC cells after 48 hr by SRB assay; details: A549, 48 h
SK-MEL-5 = assay: Anticancer activity against Homo sapiens (human) SK-MEL-5 cells after 48 hr by SRB assay; details: SK-MEL-5, 48 h
M14 [3] = assay: Anticancer activity against Homo sapiens (human) M14 cells after 48 hr by SRB assay; details: M14, 48 h
SNB-19 [4] = assay: Growth inhibition of Homo sapiens (human) SNB19 cells at 10 uM after 48 hr by SRB assay; details: SNB-19, 48 h, read-out: GI
LOX IMVI = assay: Growth inhibition of Homo sapiens (human) LOXIMVI cells at 10 uM after 48 hr by SRB assay; details: read-out: GI
SNB-19 [5] = assay: Anticancer activity against Homo sapiens (human) SNB19 cells after 48 hr by SRB assay; details: SNB-19, 48 h
SNB-75 = assay: Growth inhibition of Homo sapiens (human) SNB75 cells at 10 uM after 48 hr by SRB assay; details: SNB-75, 48 h, read-out: GI
T47D = assay: Growth inhibition of Homo sapiens (human) T47D cells at 10 uM after 48 hr by SRB assay; details: read-out: GI
CCRF-CEM = assay: Anticancer activity against Homo sapiens (human) CCRF-CEM cells after 48 hr by SRB assay
HCT-15 [6] = assay: Growth inhibition of Homo sapiens (human) HCT15 cells at 10 uM after 48 hr by SRB assay; details: HCT-15, 48 h, read-out: GI
ACHN = assay: Growth inhibition of Homo sapiens (human) ACHN cells at 10 uM after 48 hr by SRB assay; details: read-out: GI
MDA-MB-468 [7] = assay: Growth inhibition of Homo sapiens (human) MDA-MB-468 cells at 10 uM after 48 hr by SRB assay; details: MDA-MB-468, 48 h, read-out: GI
M14 [8] = assay: Growth inhibition of Homo sapiens (human) M14 cells at 10 uM after 48 hr by SRB assay; details: M14, 48 h, read-out: GI
NCI/ADR-RES = assay: Anticancer activity against Homo sapiens (human) NCI/ADR-RES cells after 48 hr by SRB assay
HCC 2998 = assay: Anticancer activity against Homo sapiens (human) HCC2998 cells after 48 hr by SRB assay; details: HCC 2998, 48 h
OVCAR-8 [9] = assay: Growth inhibition of Homo sapiens (human) OVCAR8 cells at 10 uM after 48 hr by SRB assay; details: OVCAR-8, 48 h, read-out: GI
SK-MEL-2 = assay: Anticancer activity against Homo sapiens (human) SK-MEL-2 cells after 48 hr by SRB assay; details: SK-MEL-2, 48 h
OVCAR-8 [10] = assay: Anticancer activity against Homo sapiens (human) OVCAR8 cells after 48 hr by SRB assay; details: OVCAR-8, 48 h
HCT-116 [11] = assay: Anticancer activity against Homo sapiens (human) HCT116 cells after 48 hr by SRB assay; details: HCT-116, 48 h
A498 = assay: Anticancer activity against Homo sapiens (human) A498 cells after 48 hr by SRB assay; details: A498, 48 h
HCT-15 [12] = assay: Anticancer activity against Homo sapiens (human) HCT15 cells after 48 hr by SRB assay; details: HCT-15, 48 h
PC-3 = assay: Anticancer activity against Homo sapiens (human) PC3 cells after 48 hr by SRB assay; details: PC-3, 48 h
K562 = assay: Anticancer activity against Homo sapiens (human) K562 cells after 48 hr by SRB assay; details: K562, 48 h
[13] = read-out: LC50 (the source's name)

COc1ccc(OC)c(/C=C/C(=O)N/N=C/c2ccccc2)c1
MBC (Pseudomonas aeruginosa): 100 µg/mL (≈ 322 µM) | MIC (Pseudomonas aeruginosa): 50 µg/mL (≈ 161 µM) | GI50 (MDA-MB-231): 7.24 µM | TGI (MDA-MB-231): > 100 µM | CC50 (MDA-MB-231; [13]): > 100 µM | GI50 (MDA-MB-468 [1]): 1.96 µM | TGI (MDA-MB-468 [1]): 6.47 µM | CC50 (MDA-MB-468 [1]; [13]): 61.6 µM | GI50 (Hs-578T): 9.07 µM | TGI (Hs-578T): > 100 µM | CC50 (Hs-578T; [13]): > 100 µM | GI50 (UO-31): 5.9 µM | LC50 (50% lethal concentration) (UO-31): > 100 µM | TGI (UO-31): 85.5 µM | GI50 (HOP-62): 4.95 µM | TGI (HOP-62): > 100 µM | CC50 (HOP-62; [13]): > 100 µM | inhibition of growth at 10 µM (OVCAR-3): 94% | inhibition of growth at 10 µM (HCT-116 [2]): 85.8% | GI50 (UACC-62): 3.55 µM | LC50 (UACC-62): > 100 µM | TGI (UACC-62): 75.8 µM | GI50 (MDA-MB-435): 0.283 µM | TGI (MDA-MB-435): 1.98 µM | CC50 (MDA-MB-435; [13]): > 100 µM | GI50 (A549): 4.29 µM | TGI (A549): > 100 µM | CC50 (A549; [13]): > 100 µM | GI50 (SK-MEL-5): 2.94 µM | LC50 (SK-MEL-5): > 100 µM | TGI (SK-MEL-5): 14.6 µM | GI50 (M14 [3]): 2.16 µM | LC50 (M14 [3]): > 100 µM | TGI (M14 [3]): 6.77 µM | inhibition of growth at 10 µM (SNB-19 [4]): 52.1% | inhibition of growth at 10 µM (LOX IMVI): 57.9% | GI50 (SNB-19 [5]): 4.12 µM | TGI (SNB-19 [5]): > 100 µM | CC50 (SNB-19 [5]; [13]): > 100 µM | inhibition of growth at 10 µM (SNB-75): 58.9% | inhibition of growth at 10 µM (T47D): 60.3% | GI50 (CCRF-CEM): 3.97 µM | TGI (CCRF-CEM): > 100 µM | CC50 (CCRF-CEM; [13]): > 100 µM | inhibition of growth at 10 µM (HCT-15 [6]): 58% | inhibition of growth at 10 µM (ACHN): 37.2% | inhibition of growth at 10 µM (MDA-MB-468 [7]): 71.9% | inhibition of growth at 10 µM (M14 [8]): 72.2% | GI50 (NCI/ADR-RES): 1.46 µM | LC50 (NCI/ADR-RES): > 100 µM | TGI (NCI/ADR-RES): 4.29 µM | GI50 (HCC 2998): 2.35 µM | TGI (HCC 2998): 21 µM | CC50 (HCC 2998; [13]): 94.5 µM | inhibition of growth at 10 µM (OVCAR-8 [9]): 45.2% | GI50 (SK-MEL-2): 2.98 µM | TGI (SK-MEL-2): 9.32 µM | CC50 (SK-MEL-2; [13]): > 100 µM | GI50 (OVCAR-8 [10]): 5.44 µM | LC50 (OVCAR-8 [10]): > 100 µM | TGI (OVCAR-8 [10]): 94.6 µM | GI50 (HCT-116 [11]): 2.64 µM | TGI (HCT-116 [11]): 10.2 µM | CC50 (HCT-116 [11]; [13]): 67.2 µM | GI50 (A498): 12 µM | LC50 (A498): > 100 µM | TGI (A498): > 100 µM | GI50 (HCT-15 [12]): 3.62 µM | TGI (HCT-15 [12]): > 100 µM | CC50 (HCT-15 [12]; [13]): > 100 µM | GI50 (PC-3): 5.86 µM | TGI (PC-3): 52.1 µM | CC50 (PC-3; [13]): > 100 µM | GI50 (K562): 0.488 µM | TGI (K562): > 100 µM | CC50 (K562; [13]): > 100 µM
